# Patent publication US20230165251A1, “SUBSTITUTED TOLYL FUNGICIDES AND THEIR MIXTURES” (FMC Corporation, priority 2020, published 2023)
# Key:
# [1] = system: Phakopsora pachyrhizi; experiment: Test D: preventive spray on soybean seedlings, Asian soybean rust; type: in vivo; conditions: Rate 10 ppm; for pest or weed control at 10 ppm: Phakopsora pachyrhizi, 216 h, read-out: Test D disease control rating
# From the text: (§1) General protocol for preparing test suspensions for Tests A-F: the test compounds were first dissolved in acetone in an amount equal to 3% of the final volume and then suspended at the desired concentration (in ppm) in acetone and purified water (50/50 mix by volume) containing 250 ppm of the surfactant PEG400 (polyhydric alcohol esters). The resulting test suspensions were then used in Tests A-F.
# The test solution was sprayed to the point of run-off on soybean seedlings. The following day the seedlings were inoculated with a spore suspension of Phakopsora pachyrhizi (the causal agent of Asian soybean rust) and incubated in a saturated atmosphere at 22° C. for 24 h and then moved to a growth chamber at 22° C. for 8 days, after which time visual disease ratings were made.
# (§2) A rating of 100 indicates 100% disease control and a rating of 0 indicates no disease control (relative to the controls). A dash (-) indicates the compound was not tested.
# [2] = system: Puccinia recondita f. sp. tritici; experiment: Test B: preventive spray on wheat seedlings, wheat leaf rust; type: in vivo; conditions: for pest or weed control at 10 ppm: Puccinia recondita, 192 h, read-out: Test B disease control rating
# From the text: as §1
# The test solution was sprayed to the point of run-off on wheat seedlings. The following day the seedlings were inoculated with a spore suspension of Puccinia recondita f. sp. tritici (the causal agent of wheat leaf rust) and incubated in a saturated atmosphere at 20° C. for 24 h, and then moved to a growth chamber at 20° C. for 7 days, after which time disease ratings were made.
# as §2
Molecule,pest or weed control at 10 ppm [1],pest or weed control at 10 ppm ([2]; Rate 10 ppm),Test D disease control rating [1],Test B disease control rating ([2]; Rate 10 ppm),Test B disease control rating ([2]; Rate 2 ppm)
"CO/N=C(/C)c1cc(F)c(-n2ccc(-c3ccc(C)c(CNC(=O)OC)c3)n2)c(F)c1 [Compound 99, methyl (Z)-N-[[5-[1-[2,6-difluoro-4-[1-(methoxyimino)ethyl]phenyl]-1H-pyrazol-3-yl]-2-methylphenyl]methyl]carbamate]",100%,100%,,,
"CO/N=C(\C)c1cc(F)c(-n2ccc(-c3ccc(C)c(CNC(=O)OC)c3)n2)c(F)c1 [Compound 83, methyl (E)-N-[[5-[1-[2,6-difluoro-4-[1-(methoxyimino)ethyl]phenyl]-1H-pyrazol-3-yl]-2-methylphenyl]methyl]carbamate]",100%,100%,,,
"COC(=O)NCc1cc(-c2ccn(-c3c(F)cc(C4CC4(F)F)cc3F)n2)ccc1C (stereo not shown) [Compound 89, methyl N-[[5-[1-[4-(2,2-difluorocyclopropyl)-2,6-difluorophenyl]-1H-pyrazol-3-yl]-2-methylphenyl]methyl]carbamate]",100%,100%,,,
COC(=O)NCc1cc(-c2cn(-c3c(F)cc(C)cc3F)nn2)ccc1C [compound 119],,,0%,100%,
COC(=O)NCc1cc(-c2ccn(-c3c(F)cc(Cl)cc3Cl)n2)ccc1C [compound 51],,,100%,100%,
COC(=O)NCc1cc(-c2cn(-c3c(F)cc(OC)cc3F)nn2)ccc1C [compound 130],,,0%,68%,
COC(=O)NCc1cc(-c2cn(-c3c(Br)cc(OC)cc3Br)nn2)ccc1C [compound 128],,,0%,0%,
"methyl N-[[5-[1-[2,6-dichloro-4-(1,1-dimethylethyl)phenyl]-1H-pyrazol-3-yl]-2-methylphenyl]methyl]carbamate [Compound 135]",,,,86%,
COC(=O)NCc1cc(-c2ccn(-c3c(C)cc(OC)cc3C)n2)ccc1C [compound 40],,,99%,0%,
COC(=O)NCc1cc(-c2ccn(-c3c(F)cc(CF)cc3F)n2)ccc1C [compound 77],,,100%,100%,
COC(=O)NCc1cc(-c2cn(-c3c(C)cc(OC)cc3C)nn2)ccc1C [compound 124],,,0%,0%,
COC(=O)NCc1cc(-c2ccn(-c3c(F)cc(C4OCCO4)cc3F)n2)ccc1C [compound 133],,,100%,99%,
COC(=O)NCc1cc(-c2ccn(-c3c(C)cc(Br)cc3C)n2)ccc1C [compound 48],,,99%,68%,
COC(=O)NCc1cc(-c2ccn(-c3c(F)cc(C4OCCCO4)cc3F)n2)ccc1C [Compound 134],,,100%,89%,
COC(=O)NCc1cc(-c2ccn(-c3c(Cl)cccc3Br)n2)ccc1C [compound 60],,,100%,68%,
"methyl N-[[5-[1-[2,6-difluoro-4-(2-propyn-1-yloxy)phenyl]-1H-pyrazol-3-yl]-2-methylphenyl]methyl]carbamate [Compound 30]",,,,98%,
COC(=O)NCc1cc(-c2ccn(-c3c(Br)cccc3Br)n2)ccc1C [compound 58],,,100%,68%,
COC(=O)NCc1cc(-c2ccn(-c3c(Cl)cccc3Cl)n2)ccc1C [compound 44],,,100%,68%,
COC(=O)NCc1cc(-c2ccn(-c3c(F)cccc3Br)n2)ccc1C [compound 46],,,100%,68%,
COC(=O)NCc1cc(-c2ccn(-c3c(Cl)cc(N)cc3Cl)n2)ccc1C [compound 55],,,0%,0%,
COC(=O)NCc1cc(-c2ccn(-c3c(C)cc(N)cc3C)n2)ccc1C [compound 38],,,0%,0%,
COC(=O)NNc1cc(-c2ccn(-c3c(F)cc(C(F)(F)F)cc3F)n2)ccc1C [Compound 156],54%,85%,,,
COC(=O)NNc1cc(-c2ccn(-c3c(F)cccc3F)n2)ccc1C [Compound 154],25%,0%,,,
COC(=O)NCc1cc(-c2ccn(-c3c(C)cc([N+](=O)[O-])cc3C)n2)ccc1C [compound 35],,,0%,0%,
CCCc1cc(F)c(-n2ccc(-c3ccc(C)c(CNC(=O)OC)c3)n2)c(F)c1 [compound 145],,,100%,100%,

Molecule,pest or weed control at 10 ppm [1],pest or weed control at 10 ppm ([2]; Rate 10 ppm),Test D disease control rating [1],Test B disease control rating ([2]; Rate 10 ppm),Test B disease control rating ([2]; Rate 2 ppm)
COC(=O)NCc1cc(-c2ccn(-c3c(Cl)cc(Br)cc3Cl)n2)ccc1C [compound 56],,,100%,80%,
COC(=O)NCc1cc(-c2cn(-c3c(Cl)cc(OC)cc3OC)nn2)ccc1C [compound 120],,,0%,0%,
COC(=O)NCc1cc(-c2ccn(-c3c(F)cc(N(C)C)cc3F)n2)ccc1C [compound 152],,,99%,98%,
COC(=O)NCc1cc(-c2cn(-c3c(F)cc(I)cc3F)nn2)ccc1C [compound 125],,,0%,68%,
COC(=O)NCc1cc(-c2ccn(-c3c(Cl)cccc3I)n2)ccc1C [compound 59],,,87%,45%,
COC(=O)NCc1cc(-c2ccn(-c3c(F)cccc3Cl)n2)ccc1C [compound 47],,,100%,74%,
COC(=O)NCc1cc(-c2cn(-c3c(F)cc(Br)cc3F)nn2)ccc1C [compound 126],,,0%,57%,
COC(=O)NCc1cc(-c2ccn(-c3c(F)cc(SC)cc3SC)n2)ccc1C [compound 28],,,100%,0%,
COC(=O)NCc1cc(-c2ccn(-c3c(F)cc(OCF)cc3F)n2)ccc1C [compound 73],,,100%,100%,
COC(=O)NCc1cc(-c2ccn(-c3c(C)cccc3Br)n2)ccc1C [compound 61],,,97%,68%,
COC(=O)NCc1cc(-c2ccn(-c3c(F)cccc3I)n2)ccc1C [compound 45],,,100%,0%,
COC(=O)NCc1cc(-c2ccn(-c3c(C)cc(Cl)cc3C)n2)ccc1C [compound 49],,,99%,68%,
COC(=O)NCc1cc(-c2ccn(-c3c(F)cc(N4CCOCC4)cc3F)n2)ccc1C [compound 149],,,99%,83%,
"CCC(C)c1cc(F)c(-n2ncc(-c3ccc(C)c(CNC(=O)OC)c3)n2)c(F)c1 (stereo not shown) [Compound 139, methyl N-[[5-[2-[2,6-difluoro-4-(1-methylpropyl)phenyl]-2H-1,2,3-triazol-4-yl]-2-methylphenyl]methyl]carbamate]",100%,99%,,,
COC(=O)NNc1cc(-c2ccn(-c3c(F)cc(C(C)C)cc3F)n2)ccc1C [Compound 155],100%,91%,,,
COC(=O)NCc1cc(-c2ccn(-c3c(F)cc(SC)cc3F)n2)ccc1C [compound 27],,,100%,99%,
COC(=O)NCc1cc(-c2cn(-c3c(OC)cc(OC)cc3OC)nn2)ccc1C [compound 127],,,0%,0%,
COC(=O)NCc1cc(-c2ccn(-c3c(F)cc(N4CCCCC4)cc3F)n2)ccc1C [compound 151],,,19%,68%,
COC(=O)NCc1cc(-c2cn(-c3c(Br)cc(OC)cc3[N+](=O)[O-])nn2)ccc1C [compound 129],,,0%,0%,
CNc1cc(F)c(-n2ccc(-c3ccc(C)c(CNC(=O)OC)c3)n2)c(F)c1 [compound 36],,,100%,68%,
CC=Cc1cc(F)c(-n2ccc(-c3ccc(C)c(CNC(=O)OC)c3)n2)c(F)c1 [compound 147],,,100%,99%,
"methyl N-[[5-[2-[2,6-difluoro-4-(1-methylethyl)phenyl]-2H-1,2,3-triazol-4-yl]-2-methylphenyl]methyl]carbamate [Compound 108]",,,,,100%
COC(=O)NCc1cc(-c2cn(-c3c(Cl)cc(OC)cc3Cl)nn2)ccc1C [compound 123],,,0%,0%,
COC(=O)NCc1cc(-c2ccn(-c3c(Br)cc(I)cc3Br)n2)ccc1C [compound 136],,,59%,19%,
COC(=O)NCc1cc(-c2ccn(-c3c(F)cc(OC)cc3OC)n2)ccc1C [compound 34],,,96%,28%,
